Data on ten molecules can be found in PMC3551756, “HIV-1 Fusion Is Blocked through Binding of GB Virus C E2D Peptides to the HIV-1 gp41 Disulfide Loop” (PLoS ONE, 2013).

For orientation: IC50 means the concentration that gives 50% inhibition.

One assay has as its system CD4. Kind of assay: CD4 surface expression, flow cytometry. In kind it is cell-based, human. The settings on record: PBMC and TZM-bl cells; E2 peptides 25 µM, PMA 40 ng/ml; 6 hr; FACS; RTCN vs mock; average of two independent experiments each in triplicate. Here is the method:
(§1) PHA/IL-2-stimulated PBMC or TZM-bl cells were incubated with E2 peptides (25 µM), phorbol 12-myristate 13-acetate (PMA; 40 ng/ml), SDF-1α (1 µg/ml) or RANTES (50 nM) for 6 hr. CD4, CXCR4 and CCR5 surface expression was analyzed by using standard FACS staining protocols. Cells were washed with PBS and incubated for 30 min at 4°C with PE-labeled antibodies (CD4 clone SK3, CXCR4 clone 12G5, and CCR5 clone 2D7, BD Biosciences, Germany). Subsequently, washed cells were resuspended in PBS and analyzed with a FACSCalibur™ flow cytometer (BD Biosciences, Germany).
(§2) The non-HIV-1-inhibitory peptide P28 derived from the C-terminal part of E2 (residue 271 to 290), served as a negative control.
(§3) CD4, CXCR4 and CCR5 expression on PBMC (A) and TZM-bl cells (B) after preincubation with E2 peptides were determined by flow cytometry analysis. […] Percentages illustrate the ratio-to-cell-negative (RTCN) values that were calculated from the percentage of positive cells and the fluorescence intensity of peptide-incubated cells compared to mock-incubated cells. Columns show average values ±SD of two independent experiments each performed in triplicate. *: p<0.05; **: p<0.01 (mock- vs. inhibitor-incubated cells).
In general terms: In flow cytometry, cells or beads pass a laser one at a time.

Assay [1] addresses recombinant HIV-1 gp41MN (truncated gp41 ectodomain) (HIV-1 (strain MN)). Kind of assay: ELISA; competitive: gp41MN immobilised; E2_(340)-Fc at constant 5 µg/ml with increasing amounts of peptide; bound E2_(340)-Fc detected with anti-human IgG peroxidase antibody. A general note: In an ELISA, binding on a coated surface is turned into a signal by an enzyme label.
In the next assay the test system is CXCR4. Kind of assay: CXCR4 surface expression, flow cytometry. The note with it: PBMC and TZM-bl cells; E2 peptides 25 µM, SDF-1α 1 µg/ml; 6 hr; FACS; RTCN vs mock; average of two independent experiments each in triplicate. It counts as cell-based, human. The method, then:
as §1, §2, §3

In assay [2] the test system is HIV-1 NL4-3 / TZM-bl cells. Nature of the assay: HIV-1 virion-based (BlaM-Vpr) virus-cell fusion assay. The settings on record: standard (pre-CD4 binding) and TAS (post-CD4 binding, 23°C 1 h then 37°C 2 hr); E2 peptides 20 µM, AMD-3100 10 µM, 2F5 0.5 µg/ml, b12 and B4 0.3 µg/ml; five independent experiments each in triplicate.
Description: HIV-1 virions containing the BlaM-Vpr chimera were produced as previously described [33]. Briefly, 293T cells were co-transfected with pNL4-3 proviral DNA, pCMV-BlaM-Vpr, and pAdVAntage vectors. After 2 days of cultivation, the virus-containing supernatant was centrifuged for 10 min at 300×g to remove cellular debris. The HIV-1 virion-containing supernatant was overlaid onto a 20% sucrose cushion and ultracentrifuged at 35000×g at 4°C for 90 min. The resulting pellet was resuspended in medium and aliquots were frozen at −80°C until usage.
The virion-based fusion assay was performed essentially as described elsewhere [41]. Briefly, 5×10^4 TZM-bl cells were infected with sucrose-purified HIV-1 NL4-3 virions containing BlaM-Vpr (5 ng p24-Gag per approach). Under temperature-arrested state (TAS) conditions, binding of the HI virions to target cells was allowed at low temperature via spinning inoculation, for which virions were added to cells and centrifuged at 2095×g, 4°C for 30 min. […] BlaM activity was quantified using a fluorescence plate reader. The extent of virus-cell fusion was determined from the ratio of blue (460 nm) and green (510 nm) emission upon exciting the cells at 405 nm.
To find out whether early or late steps of HIV-1 entry are affected by the E2 peptides, the E2 peptide activity was determined before and after gp120/CD4 engagement using the Vpr-β-lactamase (Vpr-BlaM) enzyme-based virus-cell fusion assay under standard (pre-CD4 binding) and temperature-arrested state (TAS; post-CD4 binding) conditions, respectively.
The HIV-inhibitory activity of known HIV-1 entry inhibitors or respective E2 peptides was determined using a virus-cell fusion assay under standard (respective inhibitors were added simultaneously to HIV NL4-3BlaM-Vpr inoculum: pre-CD4 binding) or under TAS (temperature-arrested state) conditions (respective inhibitors were added at low temperature of 23°C for 1 h after spin-inoculation [4°C] and removal of unbound HIV-1 particles: post-CD4 binding). […] Percentages were calculated in relation to mock-treated cells. […]
Another assay concerns gp120/CCR5 interaction. In kind it is binding, HIV-1. The settings on record: 293T cells expressing CCR5; sCD4 added; peptides 0.2 mM, E2_340-Fc 0.6 µM; 1 h 37°C; normalized to Hsp90.
In assay [3] the target is E2_340-Fc / HIV-1 gp41MN interaction (Human immunodeficiency virus type 1 group M subtype B, UniProt P05877). In kind it is binding. The note with it: ELISA, immobilized gp41MN, E2_340-Fc constant (5 µg/ml), increasing peptide; three independent experiments each in duplicate.
Description: Flat-bottom, 96-well Microtest ELISA plates (Sarstedt, Germany) were coated overnight at 4°C with recombinant HIV-1 gp120 (0.5 µg/ml), gp41 (0.22 µg/ml) proteins, or with streptavidin (4 µg/ml) in coating buffer (0.1 M NaHCO3, 0.1 M Na2CO3, pH 9.87). Nonspecific binding was blocked (blocking buffer: 1% BSA, 0.1% Tween-20 in phosphate buffer, pH 7.2) for 1 h at room temperature, followed by washing steps (wash buffer: 0.1% Tween in phosphate buffer, pH 7.2). […] All plates were then incubated with recombinant E2_340-Fc or Fc protein in serial dilutions in sample buffer (phosphate buffer, pH 7.2) for 3 hr at room temperature. To perform the competitive ELISAs, the recombinant E2_340-Fc protein was adjusted at 5 µg/ml and the monoclonal gp41 antibodies (246-D, F240, T32, D50, 2F5, 4E10, Chessie 8 [all: NIH AIDS Research and Reference Reagent Program], and 5F3 [Polymun, Austria]) at 100 µM. After washing procedure, the plates were incubated for 1 h with polyclonal rabbit anti-human IgG peroxidase antibody (Dako, Germany) 1∶6000 in sample buffer and washed. Plates were developed with TMB peroxidase substrate solution (KPL, USA), or with OPD/H2O2 solution in the dark. Absorbances (ODs) were read at 450 or 492 nm, respectively, using a multi-channel photometer (ELISA-Reader AxSYM, Abbott Laboratory, USA).
Competitive binding of E2 and gp120 peptides (N35, N35s) with recombinant E2_340-Fc protein to immobilized recombinant gp41MN. Simultaneously to E2_340-Fc incubation peptides of E2 or gp120 were added with increasing amounts.
A further assay deals with CCR5. Nature of the assay: CCR5 surface expression, flow cytometry. It counts as cell-based, human. The note with it: PBMC and TZM-bl cells; E2 peptides 25 µM, RANTES 50 nM; 6 hr; FACS; RTCN vs mock; average of two independent experiments each in triplicate. Here is the method: as §1, §2, §3
A further assay deals with HIV-1. The note with it: ref [33]; cited from earlier work.
The subject of assay [4] is HIV-1 Env (NL4-3 gp160, X4env) on 293T cells. Kind of assay: HIV-1 gp160 (X4env) binding of FITC-labeled E2 peptides, flow cytometry. The note with it: FITC-labeled peptides 1 µM, sCD4 pretreated, 1 h 37°C, X4env- vs vector-transfected 293T cells; three independent experiments each in duplicate. Here is the method: 293T cells were transiently transfected with an HIV-1 Env expression vector, coding for the CXCR4-tropic NL4-3 gp160 precursor (X4env) for surface expression of gp120-gp41 Env trimers or empty plasmid as control. After 2 days of cultivation, cells were incubated with 1 µg sCD4 and 1 µM FITC-conjugated E2 peptides for 1 h at 37°C respectively. Subsequently, cells were washed, resuspended in PBS, and analyzed by flow cytometry using a BD™ LSR II flow cytometer (Becton Dickinson Biosciences, Germany). Flow cytometer data were collected with BD FACSDiva™ and analyzed with FCS Express V3. In parallel, gp160 expression was determined by staining with HIV-1 gp120 mAbs (2G12 and 17b) and an anti-human IgG-FITC pAb (Dako, Germany).
Previously, we have shown that the target of the HIV-1-inhibitory E2 peptides is most likely located on the HIV-1 particle, rather than on the cell. The surface of the HIV-1 particle consists of a lipid bilayer with incorporated host cell proteins and a limited number of functional envelope (Env) trimers (on average 14±7). Therefore, we tested whether the HIV-1-inhibitory E2 peptides interact with trimeric HIV-1 Env proteins expressed on the surface of transfected cells. For this purpose, 293T cells were transiently transfected with an HIV-1 Env expression vector, coding for the gp160 precursor of the CXCR4-tropic NL4-3 envelope (X4env). Binding of FITC-labeled E2 peptides was monitored by flow cytometry.
Figure 4 Recombinant E2_340-Fc protein and E2-derived peptides bind HIV-1 gp41. (A) 293T cells expressing NL4-3 envelope (X4env) or empty plasmid as control were incubated with sCD4 and FITC-conjugated E2 peptides, respectively. Peptide binding was analyzed by flow cytometry. Percentages illustrate the increase of cell binding to X4env-transfected cells. The increase is normalized to the background binding of E2 peptides to mock-transfected cells by calculating the RTCN value. […] (C) E2 peptides with increasing amounts were added to recombinant E2_340-Fc protein (at constant concentration) and then transferred to immobilized recombinant gp41MN.

Description for gp120/CCR5 interaction: Briefly, 293T cells were transiently transfected with either pCD4 or pCCR5 expression plasmids. Verification of expression was performed 2 days after transfection via flow cytometry. After 2 days of cultivation, the cells were resuspended in binding buffer (50 mM HEPES, 5 mM MgCl2, 1 mM CaCl2, 5% BSA, 0.1 mM NaN3, pH 7.5). […] After incubation for 1 h at 37°C, cells were washed with cold PBS and lysed in Triton X-100 and Tween-20 containing buffer. Lysates were separated by a 5% SDS-PAGE and verified with monoclonal gp120 antibody F425 B4a1 (NIH AIDS Research and Reference Reagent Program) or with sheep α-HIV-1-gp120 (Aalto Bio Reagents Ltd.) in Western Blot analyses. HIV-1 gp120 (5 ng) was used as a standard.
In a related approach, the effect of E2 peptides or intact E2 protein on the interaction between gp120 and the coreceptors CCR5 and CXCR4 expressed on cells was tested by immunoblotting. To ensure efficient binding of gp120 to the coreceptors, soluble CD4 (sCD4) was added simultaneously.
Soluble HIV-1 gp120 was added to the CD4-, CCR5-, or CXCR4-expressing cells and binding was investigated by separating the cell lysates on SDS-PAGE and visualized by performing Western Blot analyses.

Take `CCCCCCCCCCCCCC(=O)O[C@@H]1[C@@H](C)[C@@]2(O)[C@@H](C=C(CO)C[C@]3(O)C(=O)C(C)=C[C@@H]23)[C@@H]2C(C)(C)[C@]12OC(C)=O` [PMA, phorbol 12-myristate 13-acetate, reference compound]: the CD4 surface presentation entry in the assay with CD4 is listed as “down-regulation of CD4”. Turning to “N35s, C54S variant of the HIV-1 gp120 N-terminus peptide N35 (from UniProt P04578 31-65)”, in assay [1], the IC50 was 4.6 µM. With “N35, HIV-1 gp120 N-terminus peptide (gp120 residue 31 to 65) (from UniProt P04578 31-65)”, the IC50 in assay [1] stood at 0.7 µM. For the molecule SDF-1α [reference compound], the CXCR4 surface presentation entry in the assay on CXCR4 is given as “down-regulation of the respective coreceptors”. Turning to `c1cc(CN2CCCNCCNCCCNCC2)ccc1CN1CCCNCCNCCCNCC1` [AMD-3100, reference compound], in assay [2], the “inhibition of virus-cell fusion, standard versus TAS conditions” value is “act after CD4 engagement”. Consider Maraviroc, for which the “interference with gp120 binding to CCR5” value with gp120/CCR5 interaction is given as “clear reduction in the gp120/CCR5”. As to “GBV-C E2 peptide P6-2 (amino acids 45 to 64)”, in [1], the 50% inhibitory concentration (IC50) amounted to 7 µM.

With Ac-TEVSEALGGAGLTGGFYEPL [P28], in [3], the “competition with E2_340-Fc for gp41 binding” value was “no effect”. In the assay on CCR5, the CCR5 surface presentation entry was “no relevant effect on HIV-1 receptor presentation”. Further, the CXCR4 surface presentation result with CXCR4 is reported as “no relevant effect on HIV-1 receptor presentation”. In the assay on CD4, the CD4 surface presentation result was “no relevant effect on HIV-1 receptor presentation”. For the same molecule, the “HIV-inhibitory activity (earlier work)” value in the assay with HIV-1 is given as “non-HIV-1-inhibitory”. Also, the “binding to HIV-1 Env-expressing cells” value in [4] was “the increase of binding was not observed”. As to `Cc1ccc(-c2ccc3c(c2)C=C(C(=O)Nc2ccc(C[N+](C)(C)C4CCOCC4)cc2)CCC3)cc1.[Cl-]` [TAK-779], the “interference with gp120 binding to CCR5” value in the assay on gp120/CCR5 interaction is “clear reduction in the gp120/CCR5”.

B1: RANTES: CCR5-ligand (protein, UniProt P13501 24-91, looked up)
C-C motif chemokine 5: SPYSSDTTPCCFAYIARPLPRAHIKEYFYTSGKCSNPAVVFVTRKNRQVCANPEKKWVREYINSLEMS
Consider B1, for which the CCR5 surface presentation entry in the assay on CCR5 is given as “down-regulation of the respective coreceptors”.
